In patent US20080248077A1, “Formulation” (ASTRAZENECA AB, priority 2005, published 2008) one finds solubility data, which are given here for one compound.

Structures are written as SMILES. Values after ≈ are worked out from the molar mass of the structure shown. Read-outs that look alike come from different tables or passages of the source.

A short description of this data set: water solubility of anastrozole. Format: physicochemical.

With `CC(C)(C#N)c1cc(Cn2cncn2)cc(C(C)(C)C#N)c1` [anastrozole, Anastrozole], the solubility worked out at 530 µg/mL (≈ 1810 µM) (at 25° C., read-out: water solubility) and 530 µg/mL (≈ 1810 µM) (read-out: aqueous solubility).

The term solubility denotes how much of the substance goes into solution per volume.
